Counter-ions that a name gives are not always drawn.
Legend:
[1] = system: longitudinal muscle of human vas deferens; experiment: Contractile actions of L-type Ca2+ agonists, longitudinal muscle; conditions: for contractions on second exposure to [K+]o, percentage of corresponding initial responses, longitudinal muscle: [K+]o 30 mM & 120 mM in the continuous presence of agonist 1.0 μM; for response of longitudinal muscle to higher concentration of L-type Ca2+ agonist: agonist 10 μM; for response of longitudinal muscle to brief exposure to L-type Ca2+ agonist: agonist 0.1-3 μM
From the text: (§1) Human vas deferens specimens were obtained after elective vasectomies of healthy fertile men. College ethical approval and the consent of patients were obtained. The specimens were placed in ice-cold Krebs' medium, dissected-free of connective tissue/blood vessels and cut longitudinally into strips (longitudinal muscle preparations; 5-10 mm long & 1 mm wide) or transversely into rings (circular muscle preparations; 3 mm in length). The longitudinal and circular muscle preparations were then set up for tension recording (resting tension 5-7 mN) in a Perspex chamber superfused at 2 ml per min with Krebs' medium (36° C.) composed of (mM): NaCl, 118.8; NaHCO3, 25; KCl, 4.7; CaCl2.2H2O, 2.5; KH2PO4, 1.2; MgSO4.7H2O, 1.2; glucose, 11.1; ascorbic acid 0.1 and continuously gassed with 95% O2 and 5% CO2. Contractile responses were recorded via a Harvard-type force-displacement transducer. The analog signals were digitised using CIO-Das 16/Jr data acquisition software (Amplicon Liveline, Brighton, UK) and re-plotted on a microcomputer.
(§2) Tissues were equilibrated for 180 min in Krebs' medium containing inhibitors of extraneuronal and neuronal reuptake of noradrenaline, oestradiol (1 μM) and desipramine (0.1 μM) respectively, inhibitors of catechol-O-methyltransferase and monoamine oxidase, tropolone (10 μM) and iproniazid (10 μM) respectively and the β-adrenoceptor blocker, propranolol (1 μM). At the end of the equilibration period, the tissues were stimulated with noradrenaline (100 μM). […] After a contact time of 30-40 min in this medium, different experimental protocols (described below) were adopted in order to • (a) Elucidate the contractile actions of L-type Ca^2+ agonists such as FPL 64176 or Bay K 8644. In these experiments, tissues were exposed to FPL 64176 (0.1-10 μM added cumulatively) or in separate experiments Bay K 8644 (0.1-10 μM added cumulatively). • (b) Investigate the effects of various diphenylalkylamines and conventional L-type Ca^2+ antagonists (methoxyverapamil or nifedipine) on contractions evoked by high concentrations of extracellular potassium (high [K^+]o) in the presence of L-type Ca^2+ agonists, FPL 64176 (1 μM) or Bay K 8644 (1 μM). In this protocol, tissues were stimulated with high [K^+]O (10, 30 and 120 mM at 10-15 min intervals) in normal Krebs' medium, then exposed to L-type Ca^2+ agonists for 20-30 min and subsequently stimulated with high [K^+]O (10, 30 and 120 mM) in the presence of the drugs. These provided the initial responses. Following this and in the continuous presence of the L-type Ca^2+ agonists, the tissues were exposed additionally to L-type Ca^2+ antagonists (conventional or diphenylalkylamines) or drug-free vehicle medium. After contact times of 25-50 min the tissues were stimulated, first with high [K^+]O (either 30 mM or 120 mM) in order to take account of the well-documented use-dependent action of the diphenylalkylamine Ca^2+ antagonists. Following recovery from the test contraction and after a further 30-40 min, the tissues were then stimulated with high [K^+]o (10, 30 and 120 mM). This protocol is illustrated in FIGS. 3 and 4. The resulting contractions were measured (see below) and expressed as a percentage of corresponding initial responses to high [K^+]o evoked in the presence of L-type Ca^2+ agonists (i.e. before exposure to L-type Ca^2+ antagonists). […] Subsequent analysis (see below) was between contractions of drug-treated tissues and time-matched controls • (c) Determine the inhibitory potencies (IC50 values) of various diphenylalkylamines and phenothiazines and conventional L-type Ca^2+ antagonists (nifedipine and methoxyverapamil) against contractions evoked in longitudinal and circular muscle of human vas deferens by high [K^+]o (120 mM) in the presence of FPL 64176. In these experiments, tissues were stimulated with high [K^+]o (120 mM); sequentially in normal Krebs' medium and after 25-30 min exposure to the L-type Ca^2+ agonist, FPL 64176, (1 μM, Initial response). […]

[2] = system: circular muscle of human vas deferens; experiment: Contractile actions of L-type Ca2+ agonists, circular muscle; conditions: for contractions on second exposure to [K+]o, percentage of corresponding initial responses, circular muscle: [K+]o 30 mM & 120 mM in the continuous presence of agonist 1.0 μM; for response of circular muscle to higher concentration of L-type Ca2+ agonist: agonist 10 μM; for response of circular muscle to brief exposure to L-type Ca2+ agonist: agonist 0.1-3 μM
From the text: as §1, §2

[3] = system: longitudinal muscle of human vas deferens; experiment: IC50 against contractions evoked by high K+ (120 mM) in the presence of FPL 64176, longitudinal muscle strips; conditions: Homo sapiens; contractions evoked by K+ (120 mM) in the presence of FPL 64176 (1 μM); means ± S.E.M.
From the text: as §1, §2

[4] = system: circular muscle of human vas deferens; experiment: IC50 against contractions evoked by high K+ (120 mM) in the presence of FPL 64176, circular muscle rings; conditions: Homo sapiens; contractions evoked by K+ (120 mM) in the presence of FPL 64176 (1 μM); means ± S.E.M.
From the text: as §1, §2

[5] = system: longitudinal muscle of human vas deferens; experiment: Inhibition at fixed concentration of contractions evoked by high K+ in the presence of FPL 64176, longitudinal muscle; conditions: drug 10 μM
From the text: as §1
Tissues were equilibrated for 180 min in Krebs' medium containing inhibitors of extraneuronal and neuronal reuptake of noradrenaline, oestradiol (1 μM) and desipramine (0.1 μM) respectively, inhibitors of catechol-O-methyltransferase and monoamine oxidase, tropolone (10 μM) and iproniazid (10 μM) respectively and the β-adrenoceptor blocker, propranolol (1 μM). At the end of the equilibration period, the tissues were stimulated with noradrenaline (100 μM). […] After a contact time of 30-40 min in this medium, different experimental protocols (described below) were adopted in order to • (a) Elucidate the contractile actions of L-type Ca^2+ agonists such as FPL 64176 or Bay K 8644. In these experiments, tissues were exposed to FPL 64176 (0.1-10 μM added cumulatively) or in separate experiments Bay K 8644 (0.1-10 μM added cumulatively). • (b) Investigate the effects of various diphenylalkylamines and conventional L-type Ca^2+ antagonists (methoxyverapamil or nifedipine) on contractions evoked by high concentrations of extracellular potassium (high [K^+]o) in the presence of L-type Ca^2+ agonists, FPL 64176 (1 μM) or Bay K 8644 (1 μM). In this protocol, tissues were stimulated with high [K^+]O (10, 30 and 120 mM at 10-15 min intervals) in normal Krebs' medium, then exposed to L-type Ca^2+ agonists for 20-30 min and subsequently stimulated with high [K^+]O (10, 30 and 120 mM) in the presence of the drugs. These provided the initial responses. […] The resulting contractions were measured (see below) and expressed as a percentage of corresponding initial responses to high [K^+]o evoked in the presence of L-type Ca^2+ agonists (i.e. before exposure to L-type Ca^2+ antagonists). […]

[6] = system: circular muscle of human vas deferens; experiment: Inhibition at fixed concentration of contractions evoked by high K+ in the presence of FPL 64176, circular muscle; conditions: drug 10 μM
From the text: as §1
Tissues were equilibrated for 180 min in Krebs' medium containing inhibitors of extraneuronal and neuronal reuptake of noradrenaline, oestradiol (1 μM) and desipramine (0.1 μM) respectively, inhibitors of catechol-O-methyltransferase and monoamine oxidase, tropolone (10 μM) and iproniazid (10 μM) respectively and the β-adrenoceptor blocker, propranolol (1 μM). At the end of the equilibration period, the tissues were stimulated with noradrenaline (100 μM). […] After a contact time of 30-40 min in this medium, different experimental protocols (described below) were adopted in order to • (a) Elucidate the contractile actions of L-type Ca^2+ agonists such as FPL 64176 or Bay K 8644. In these experiments, tissues were exposed to FPL 64176 (0.1-10 μM added cumulatively) or in separate experiments Bay K 8644 (0.1-10 μM added cumulatively). • (b) Investigate the effects of various diphenylalkylamines and conventional L-type Ca^2+ antagonists (methoxyverapamil or nifedipine) on contractions evoked by high concentrations of extracellular potassium (high [K^+]o) in the presence of L-type Ca^2+ agonists, FPL 64176 (1 μM) or Bay K 8644 (1 μM). In this protocol, tissues were stimulated with high [K^+]O (10, 30 and 120 mM at 10-15 min intervals) in normal Krebs' medium, then exposed to L-type Ca^2+ agonists for 20-30 min and subsequently stimulated with high [K^+]O (10, 30 and 120 mM) in the presence of the drugs. These provided the initial responses. Following this and in the continuous presence of the L-type Ca^2+ agonists, the tissues were exposed additionally to L-type Ca^2+ antagonists (conventional or diphenylalkylamines) or drug-free vehicle medium. After contact times of 25-50 min the tissues were stimulated, first with high [K^+]O (either 30 mM or 120 mM) in order to take account of the well-documented use-dependent action of the diphenylalkylamine Ca^2+ antagonists. Following recovery from the test contraction and after a further 30-40 min, the tissues were then stimulated with high [K^+]o (10, 30 and 120 mM). This protocol is illustrated in FIGS. 3 and 4. The resulting contractions were measured (see below) and expressed as a percentage of corresponding initial responses to high [K^+]o evoked in the presence of L-type Ca^2+ agonists (i.e. before exposure to L-type Ca^2+ antagonists). […]

[7] = system: longitudinal muscle of human vas deferens; experiment: New molecules against contractions to high K+ (120 mM), longitudinal muscle; conditions: for IC50: Homo sapiens, contractions evoked by K+ (120 mM), preliminary data, mean, n=2-3, read-out: Functional inhibitory potencies (IC50 values), Longitudinal muscle; for relative effectiveness against longitudinal and circular muscle contractions: contractions evoked by high [K+]o; for Selectivity [(C/L)-1]: longitudinal muscle selectivity from IC50 values in circular and longitudinal muscle, K+ (120 mM)
From the text: as §1, with “preparations; 5-8” for “preparations; 5-10”, “preparations; ˜3” for “preparations; 3”, “a Harvard type” for “a Harvard-type”
(§3) Tissues were equilibrated for 180 min in Krebs' medium containing inhibitors of extraneuronal and neuronal reuptake of noradrenaline, oestradiol (1 μM) and desipramine (0.1 μM) respectively, inhibitors of catechol-O-methyltransferase and monoamine oxidase, tropolone (10 μM) and iproniazid (10 μM) respectively and the β-adrenoceptor blocker, propranolol (1 μM). At the end of the equilibration period, the tissues were stimulated with noradrenaline (100 μM). […] After 40-45 min in this medium the tissues were stimulated with high [K^+]O (120 mM, Initial response). This was followed by exposure to cumulative concentrations of the new molecules {NIBA(1)XC1, NIBA(14)XN10, NIBA(6)XN3, NIBA(2)XC2, NIBA(53)XN16} or to Krebs' medium containing drug vehicles (time-matched controls). After contact times of 40-60 min at each drug concentration, the tissues were stimulated with high [K^+]o (120 mM). The resulting contractions were measured using computer software developed in-house to measure the total response (i.e. rhythmic activity plus tonic contraction). Contractions obtained in the presence of the new drug molecules were expressed as a percentage of the initial contraction evoked by high [K^+]o (120 mM) before exposure to the drugs.

[8] = system: circular muscle of human vas deferens; experiment: New molecules against contractions to high K+ (120 mM), circular muscle; conditions: contractions evoked by K+ (120 mM), preliminary data, mean, n=2-3, read-out: Functional inhibitory potencies (IC50 values), Circular muscle
From the text: as §1, with “preparations; 5-8” for “preparations; 5-10”, “preparations; ˜3” for “preparations; 3”, “a Harvard type” for “a Harvard-type”
as §3

[9] = Homo sapiens, [K+]o 120 mM in the presence of FPL 64176
[10] = [K+]o 30 mM in the presence of FPL 64176 (1.0 μM)

In the case of `COC(=O)C1=C(C)NC(C)=C([N+](=O)[O-])[C@H]1c1ccccc1C(F)(F)F` [Bay K 8644], the “contractions on second exposure to [K+]o, percentage of corresponding initial responses, longitudinal muscle” value [1] is reported as roughly 92%, the “response of longitudinal muscle to higher concentration of L-type Ca2+ agonist” value [1] is reported as “rhythmic contractility” and the “response of longitudinal muscle to brief exposure to L-type Ca2+ agonist” value [1] is reported as “unresponsive”. The “contractions on second exposure to [K+]o, percentage of corresponding initial responses, circular muscle” value [2] was 86-92%, the “response of circular muscle to higher concentration of L-type Ca2+ agonist” value [2] was “rhythmic contractility” and the “response of circular muscle to brief exposure to L-type Ca2+ agonist” value [2] was “unresponsive”.
`CN(C)CCCN1c2ccccc2Sc2ccc(Cl)cc21` [Chlorpromazine, chlorpromazine hydrochloride] gave an IC50 [3] of 12.4 ± 2.9 µM and an IC50 [4] of 18.3 ± 6 µM.
`COC(=O)c1c(C)[nH]c(C)c1C(=O)c1ccccc1Cc1ccccc1` [FPL 64176, 2,5-dimethyl-4-[2-(phenylmethyl)benzoyl]-H-pyrrole-3-carboxylic acid methyl ester] was tested, and the “contractions on second exposure to [K+]o, percentage of corresponding initial responses, longitudinal muscle” value [1] was 160-181%, the “response of longitudinal muscle to higher concentration of L-type Ca2+ agonist” value [1] was “rhythmic contractility” and the “response of longitudinal muscle to brief exposure to L-type Ca2+ agonist” value [1] was “quiescent”. For the same compound, the “contractions on second exposure to [K+]o, percentage of corresponding initial responses, circular muscle” value [2] was 270-300%, the “response of circular muscle to higher concentration of L-type Ca2+ agonist” value [2] was “rhythmic contractility” and the “response of circular muscle to brief exposure to L-type Ca2+ agonist” value [2] was “quiescent”.
In the case of `Fc1ccc(C(c2ccc(F)cc2)N2CCN(C/C=C/c3ccccc3)CC2)cc1` [Flunarizine, flunarizine dihydrochloride], the inhibition at 10 µM [5, 9] is reported as 40 to 44%, the “inhibition of longitudinal muscle contractions compared to time-matched controls” value [5, 10] is reported as 20-30% and the inhibition at 10 µM [6, 9] is reported as 40 to 44%. The “inhibition of circular muscle contractions compared to time-matched controls” value [6, 10] was 20-30%.
With `COCC(=O)O[C@]1(CCN(C)CCCc2nc3ccccc3[nH]2)CCc2cc(F)ccc2[C@@H]1C(C)C` [Mibefradil] the IC50 [3] was 1.1 ± 0.2 µM and the IC50 [4] was 2.4 ± 0.9 µM.
With `CN1CCCCC1CNCCC(c1ccccc1)c1ccccc1` (centres unmarked) [NIBA(1)XC1] the IC50 [7] was 3.02 µM, the “relative effectiveness against longitudinal and circular muscle contractions” value (“relative effectiveness” for short) [7] was “more effective against longitudinal than circular muscle contractions” and the “Selectivity [(C/L)-1]” value [7] was 7.01. For the same compound, the IC50 [8] was 24.2 µM.
With `CC1CCCCN1CCC(c1ccccc1)c1ccccc1` (centres unmarked) [NIBA(2)XC2] the IC50 [7] was 3 µM, the “relative effectiveness” value [7] was “more effective against longitudinal than circular muscle contractions” and the “Selectivity [(C/L)-1]” value [7] was 2.69. The IC50 [8] was 11.1 µM.
With `CN1CCCCC1CCN(c1ccccc1)c1ccccc1` (centres unmarked) [NIBA(6)XN3] the IC50 [7] was 6.25 µM, the “relative effectiveness” value [7] was “more effective against longitudinal than circular muscle contractions” and the “Selectivity [(C/L)-1]” value [7] was greater than 3.8. For the same compound, the IC50 [8] was greater than 30 µM.
